{
  "source": "paper PMC13249469",
  "about": "“High-throughput ligand diversification to discover chemical inducers of proximity” (Nature Chemical Biology, 2026)",
  "biological_target": "T1, CRBN (Cereblon) (Homo sapiens, UniProt Q96SW2)",
  "T1 construct": "CRBN–DDB1; with DDB1",
  "assay": "competitive FP displacement of BODIPY-labelled IMiD probe, without ENL YEATS",
  "assay_type": "binding",
  "data": [
    {"smiles": "O=C(COc1cccc2c1C(=O)N(C1CCC(=O)NC1=O)C2=O)NCCOCCOCCNS(=O)(=O)Nc1cccc(-c2cn3cc(C(=O)NC4CCC4)ccc3n2)c1", "note": "(stereo not shown) [SR-1114]", "values": [
      {"measurement": "IC50", "value": 155, "unit": "nM"}
    ]}
  ]
}
